Reference: US20120202690A1, “HERBICIDAL COMPOUNDS” (SYNGENTA LIMITED, priority 2009, published 2012)

How the values were obtained:
Assay type in all cases: in vivo
[1] = system: Amaranthus retroflexus (AMARE); experiment: Pre-emergence biological efficacy, glasshouse, 1000 g/ha, evaluated after 13 days (100=total damage to plant; 0=no damage to plant); details: Amaranthus retroflexus, 312 h, rate 1,000 g/ha, read-out: Percentage damage caused to weed species, pre-emergence, AMARE
Experimental: (§1) Seeds of Alopecurus myosuroides (ALOMY), Setaria faberi (SETFA), Echinochloa crus-galli (ECHCG), Solanum nigrum (SOLNI), Amaranthus retroflexus (AMARE) and Ipomoea hederaceae (IPOHE) were sown in standard soil in pots. […] The test plants were then grown under controlled conditions in the glasshouse (at 24/16° C., day/night; 14 hours light; 65% humidity) and watered twice daily. […]

[2] = system: Solanum nigrum (SOLNI); experiment: as above; details: Solanum nigrum, 312 h, rate 1,000 g/ha, read-out: Percentage damage caused to weed species, pre-emergence, SOLNI
Experimental: as §1

[3] = system: Setaria faberi (SETFA); experiment: as above; details: Setaria faberi, 312 h, rate 1,000 g/ha, read-out: Percentage damage caused to weed species, pre-emergence, SETFA
Experimental: as §1

[4] = system: Alopecurus myosuroides (ALOMY); experiment: as above; details: Alopecurus myosuroides, 312 h, rate 1,000 g/ha, read-out: Percentage damage caused to weed species, pre-emergence, ALOMY
Experimental: as §1

[5] = system: Ipomoea hederaceae (IPOHE); experiment: as above; details: Ipomoea, 312 h, rate 1,000 g/ha, read-out: Percentage damage caused to weed species, pre-emergence, IPOHE
Experimental: as §1

[6] = system: Echinochloa crus-galli (ECHCG); experiment: as above; details: Echinochloa crus-galli, 312 h, rate 1,000 g/ha, read-out: Percentage damage caused to weed species, pre-emergence, ECHCG
Experimental: as §1

[7] = system: Amaranthus retroflexus (AMARE); experiment: Post-emergence biological efficacy, glasshouse, 500 or 1000 g/ha, evaluated after 13 days (100=total damage to plant; 0=no damage to plant); details: Amaranthus retroflexus, 312 h, rate 1,000 g/ha, read-out: Percentage damage caused to weed species, post-emergence, AMARE
Experimental: as §1, with “Echinochloa […]),” for “Echinochloa crus-galli (ECHCG),”, “grown on” for “grown”, “in a” for “in the”

[8] = system: Solanum nigrum (SOLNI); experiment: as above; details: Solanum nigrum, 312 h, rate 1,000 g/ha, read-out: Percentage damage caused to weed species, post-emergence, SOLNI
Experimental: as §1, with “Echinochloa […]),” for “Echinochloa crus-galli (ECHCG),”, “grown on” for “grown”, “in a” for “in the”

[9] = system: Setaria faberi (SETFA); experiment: as above; details: Setaria faberi, 312 h, rate 1,000 g/ha, read-out: Percentage damage caused to weed species, post-emergence, SETFA
Experimental: as §1, with “Echinochloa […]),” for “Echinochloa crus-galli (ECHCG),”, “grown on” for “grown”, “in a” for “in the”

[10] = system: Alopecurus myosuroides (ALOMY); experiment: as above; details: Alopecurus myosuroides, 312 h, rate 1,000 g/ha, read-out: Percentage damage caused to weed species, post-emergence, ALOMY
Experimental: as §1, with “Echinochloa […]),” for “Echinochloa crus-galli (ECHCG),”, “grown on” for “grown”, “in a” for “in the”

[11] = system: Echinochloa crusgaffi (ECHCG); experiment: as above; details: Echinochloa, 312 h, rate 1,000 g/ha, read-out: Percentage damage caused to weed species, post-emergence, ECHCG
Experimental: as §1, with “Echinochloa […]),” for “Echinochloa crus-galli (ECHCG),”, “grown on” for “grown”, “in a” for “in the”

[12] = system: Ipomoea hederaceae (IPOHE); experiment: as above; details: Ipomoea, 312 h, rate 1,000 g/ha, read-out: Percentage damage caused to weed species, post-emergence, IPOHE
Experimental: as §1, with “Echinochloa […]),” for “Echinochloa crus-galli (ECHCG),”, “grown on” for “grown”, “in a” for “in the”

Question: For `Cc1c[nH]c2nc(C3CC3)nc(C(=O)O)c12` [Compound 1-3, 4-Carboxy-2-cyclopropyl-5-methyl-7H-pyrrolo[2,3-d]pyrimidine], which pest or weed control at 1000 g/ha [1] is on record?
Answer: Its pest or weed control at 1000 g/ha is 50%.

Question: And the pest or weed control at 1000 g/ha [2]?
Answer: Its pest or weed control at 1000 g/ha is 20%.

Question: And the pest or weed control at 1000 g/ha [3]?
Answer: Its pest or weed control at 1000 g/ha is 10%.

Question: And the pest or weed control at 1000 g/ha [4]?
Answer: The pest or weed control at 1000 g/ha was 0%.

Question: And the pest or weed control at 1000 g/ha [5]?
Answer: Its pest or weed control at 1000 g/ha is 100%.

Question: What about the pest or weed control at 1000 g/ha [6] of the same compound?
Answer: The pest or weed control at 1000 g/ha was 0%.

Question: And the pest or weed control at 1000 g/ha [7]?
Answer: Its pest or weed control at 1000 g/ha is 100%.

Question: What about the pest or weed control at 1000 g/ha [8] of the same compound?
Answer: The pest or weed control at 1000 g/ha was 80%.

Question: What about the pest or weed control at 1000 g/ha [9] of the same compound?
Answer: Its pest or weed control at 1000 g/ha is 0%.

Question: What about the pest or weed control at 1000 g/ha [10] of the same compound?
Answer: The pest or weed control at 1000 g/ha was 0%.

Question: And the pest or weed control at 1000 g/ha [11]?
Answer: The pest or weed control at 1000 g/ha was 0%.

Question: What about the pest or weed control at 1000 g/ha [12] of the same compound?
Answer: Its pest or weed control at 1000 g/ha is 50%.

Question: Which results are given for `COC(=O)c1nc(C2CC2)nc2[nH]cc(C)c12` [Compound 1-4, 2-Cyclopropyl-4-methoxycarbonyl-5-methyl-7H-pyrrolo[2,3-d]pyrimidine]?
Answer: pest or weed control at 1000 g/ha [1]: 90%; pest or weed control at 1000 g/ha [2]: 90%; pest or weed control at 1000 g/ha [3]: 30%; pest or weed control at 1000 g/ha [4]: 10%; pest or weed control at 1000 g/ha [5]: 60%; pest or weed control at 1000 g/ha [6]: 30%; pest or weed control at 1000 g/ha [7]: 100%; pest or weed control at 1000 g/ha [8]: 90%; pest or weed control at 1000 g/ha [9]: 80%; pest or weed control at 1000 g/ha [10]: 10%; pest or weed control at 1000 g/ha [11]: 70%; pest or weed control at 1000 g/ha [12]: 70%

Question: What does the source list for `COc1c(Cl)ccc(-c2nc(C(=O)O)c3cc[nH]c3n2)c1F` [Compound 1-61, 4-Carboxy-2-(4-chloro-2-fluoro-3-methoxyphenyl)-7H-pyrrolo[2,3-d]pyrimidine]?
Answer: pest or weed control at 1000 g/ha [3]: 0%; pest or weed control at 1000 g/ha [4]: 0%; pest or weed control at 1000 g/ha [5]: 0%; pest or weed control at 1000 g/ha [6]: 0%; pest or weed control at 1000 g/ha [7]: 100%; pest or weed control at 1000 g/ha [8]: 70%; pest or weed control at 1000 g/ha [9]: 40%; pest or weed control at 1000 g/ha [10]: 10%; pest or weed control at 1000 g/ha [11]: 20%; pest or weed control at 1000 g/ha [12]: 70%

Question: Which pest or weed control at 1000 g/ha [2] does the source give for `COc1c(Cl)ccc(-c2nc(C(=O)OCc3ccccc3)c3c(C)c[nH]c3n2)c1F` [Compound 1-86, 4-Benzyloxycarbonyl-2-(4-chloro-2-fluoro-3-methoxyphenyl)-5-methyl-7H-pyrrolo[2,3-d]pyrimidine] here?
Answer: The pest or weed control at 1000 g/ha was 10%.

Question: What about the pest or weed control at 1000 g/ha [3] of the same compound?
Answer: The pest or weed control at 1000 g/ha was 0%.

Question: What about the pest or weed control at 1000 g/ha [4] of the same compound?
Answer: Its pest or weed control at 1000 g/ha is 0%.

Question: What about the pest or weed control at 1000 g/ha [5] of the same compound?
Answer: Its pest or weed control at 1000 g/ha is 0%.

Question: And the pest or weed control at 1000 g/ha [6]?
Answer: Its pest or weed control at 1000 g/ha is 0%.

Question: And the pest or weed control at 1000 g/ha [7]?
Answer: Its pest or weed control at 1000 g/ha is 40%.

Question: What about the pest or weed control at 1000 g/ha [8] of the same compound?
Answer: Its pest or weed control at 1000 g/ha is 60%.

Question: What about the pest or weed control at 1000 g/ha [9] of the same compound?
Answer: Its pest or weed control at 1000 g/ha is 10%.

Question: What about the pest or weed control at 1000 g/ha [10] of the same compound?
Answer: Its pest or weed control at 1000 g/ha is 0%.

Question: And the pest or weed control at 1000 g/ha [11]?
Answer: The pest or weed control at 1000 g/ha was 0%.

Question: What about the pest or weed control at 1000 g/ha [12] of the same compound?
Answer: The pest or weed control at 1000 g/ha was 30%.

Question: Which results are given for `Cc1cc2c(C(=O)O)nc(-c3ccc(Cl)c(F)c3)nc2n1Cc1ccccc1[N+](=O)[O-]` [Compound 8-21, 4-Carboxy-2-(4-chloro-3-fluorophenyl)-6-methyl-7-(2-nitrophenyl-methyl)-7H-pyrrolo[2,3-d]pyrimidine]?
Answer: pest or weed control at 1000 g/ha [2]: 0%; pest or weed control at 1000 g/ha [3]: 20%; pest or weed control at 1000 g/ha [4]: 0%; pest or weed control at 1000 g/ha [5]: 0%; pest or weed control at 1000 g/ha [6]: 0%; pest or weed control at 1000 g/ha [7]: 0%; pest or weed control at 1000 g/ha [8]: 20%; pest or weed control at 1000 g/ha [9]: 0%; pest or weed control at 1000 g/ha [10]: 10%; pest or weed control at 1000 g/ha [11]: 0%; pest or weed control at 1000 g/ha [12]: 10%

Question: Which results are given for `COC(=O)c1nc(-c2ccc(Cl)c(OC)c2F)cc2c1c(C)cn2C(C)=O` [Compound 36-64, 6-(4-Chloro-2-fluoro-3-methoxyphenyl)-4-methoxycarbonyl-3-methyl-1-methylcarbonyl-1H-pyrrolo[3,2-c]pyridine]?
Answer: pest or weed control at 1000 g/ha [2]: 50%; pest or weed control at 1000 g/ha [3]: 0%; pest or weed control at 1000 g/ha [4]: 0%; pest or weed control at 1000 g/ha [5]: 20%; pest or weed control at 1000 g/ha [6]: 0%; pest or weed control at 1000 g/ha [7]: 70%; pest or weed control at 1000 g/ha [8]: 80%; pest or weed control at 1000 g/ha [9]: 10%; pest or weed control at 1000 g/ha [10]: 0%; pest or weed control at 1000 g/ha [11]: 0%; pest or weed control at 1000 g/ha [12]: 70%
